Measurements as given in PubChem BioAssay (NCI).
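Cultured in 96-well plates, cells were exposed to test compound for 48 hours across five concentrations. Here, GI50 denotes the concentration required for 50% inhibition of growth. Definition used: TGI = concentration required for complete inhibition of growth.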

Tests used:
Assay in all cases: NCI tumour cell line growth inhibition, 48 h
[1] = test system: OVCAR-4 ovarian
[2] = test system: SK-MEL-2 melanoma
[3] = test system: OVCAR-5 ovarian
[4] = test system: HT29 colon
[5] = test system: UACC-62 melanoma
[6] = test system: HOP-62 NSCLC
[7] = test system: UACC-257 melanoma
[8] = test system: K-562 leukemia
[9] = test system: EKVX NSCLC
[10] = test system: MOLT-4 leukemia

SMILES	TGI [1] [µM]	TGI [2] [µM]	TGI [3] [µM]	TGI [4] [µM]	TGI [5] [µM]	TGI [6] [µM]	TGI [7] [µM]	TGI [8] [µM]	TGI [9] [µM]	TGI [10] [µM]	GI50 [1] [µM]	GI50 [2] [µM]	GI50 [3] [µM]	GI50 [4] [µM]	GI50 [5] [µM]	GI50 [6] [µM]	GI50 [7] [µM]	GI50 [8] [µM]	GI50 [9] [µM]	GI50 [10] [µM]
COc1ccc(/C=C/[N+](=O)[O-])cc1	38.2	52.7	50.8	11.2	39.7	> 100	8.09	> 100	41	12.8	–	–	–	–	–	–	–	–	–	–
CCCCCCCCCCCCCCCCOCCCOP(=O)(O)C1CCCN(O)C1=O (stereo not given)	19.2	24.6	18.6	83.5	7.18	18.6	14.8	42.3	16.3	19.7	2.43	5.95	1.63	0.953	1.29	0.837	3.23	4.25	3.6	1.6
Nc1nncs1	> 5000	> 5000	> 4450	> 3390	> 3890	1700	> 4200	> 5000	> 5000	> 4900	–	–	–	–	–	–	–	–	–	–
O=C(O)CNCc1c2ccccc2[n+]([O-])c2ccccc12	> 100	> 100	> 100	> 100	> 100	> 100	> 100	> 100	> 100	> 100	–	–	–	–	–	–	–	–	–	–
CSc1sc(=S)sc1SC	> 100	> 31.6	> 100	> 100	> 100	> 100	> 100	> 100	> 100	> 100	–	–	–	–	–	–	–	–	–	–
COC1/C=C\OC2(C)Oc3c(C)c(O)c4c(O)c(c(CN(C)C)c(O)c4c3C2=O)NC(=O)/C(C)=C\C=C/C(C)C(O)C(C)C(O)C(C)C(OC(C)=O)C1C (stereo not given)	> 100	42.5	> 100	54.4	41.2	> 100	60.9	85.2	61.4	38.9	–	–	–	–	–	–	–	–	–	–
C[C@H](CCC1=NCCN1)[C@H]1CC[C@H]2[C@@H]3CC[C@@H]4C[C@H](O)CC[C@]4(C)[C@H]3CC[C@]12C	29.6	21.3	34.7	3.65	4.26	20.9	6.6	> 21.8	30.1	8.79	–	–	–	–	–	–	–	–	–	–
COC(=O)c1nc2c3c(cccc3c1C(=O)OC)Nc1ccccc1-2	> 100	71.8	> 100	> 100	55.7	71.7	> 100	> 100	> 100	> 100	–	–	–	–	–	–	–	–	–	–
NC(=O)c1cc(C2OC(CO)C(O)C2O)nn1-c1ccc([N+](=O)[O-])cc1 (stereo not given)	> 100	> 100	> 100	> 100	> 100	> 100	> 100	> 100	> 100	> 100	–	–	–	–	–	–	–	–	–	–
O=C(O)C(Br)Cc1ccc2c(c1)OCO2 (stereo not given)	> 100	> 100	> 100	> 100	> 100	> 100	> 100	> 100	> 100	> 100	–	–	–	–	–	–	–	–	–	–
C#C[C@@]1(O)[C@@H](CO)O[C@@H](n2cc(F)c3c(N)ncnc32)[C@@H]1O	8.67	2.87	> 100	> 100	1.47	7.79	4.64	> 100	11.3	> 100	1.01	0.446	1.78	0.207	0.331	0.571	0.487	0.285	0.675	0.304
COc1cc2c3c(c4cc(OC)c(OC)cc4c2cc1OC)[C@H](O)[C@@H]1CCCN1C3	0.702	0.234	0.732	1.53	0.395	0.57	1.15	> 100	0.938	> 100	–	–	–	–	–	–	–	–	–	–
